Source: ChEMBL document CHEMBL1136203, “Liquid-phase synthesis of a pegylated adenosine-oligoarginine conjugate, cell-permeable inhibitor of cAMP-dependent protein kinase” (Bioorg Med Chem Lett, 2003)
Square brackets hold non-standard residues; d marks the D form. Peptide text beside a SMILES is read from it. * marks the point of attachment. ξ: configuration not given here. Adenosine(5'-uronoyl) = Nc1ncnc2c1ncn2[C@@H]1O[C@H](C(=O)*)[C@@H](O)[C@H]1O; Biotin = O=C1N[C@H]2[C@H](CS[C@H]2CCCCC(=O)*)N1; NHCH2CH2OCH2CH2OMe = COCCOCCN*; NH(CH2)6NH2 = NCCCCCCN*; ξK = NCCCCC(N)C(=O)O; Ahx = NCCCCCC(=O)O

Assay: Inhibition of cAMP dependent Protein kinase A (PKA) catalytic subunit from bovine heart
Set-up: species or system Bos taurus

Row | SMILES | IC50 [nM]
1 | O=S(=O)(NCCNC/C=C/c1ccc(Br)cc1)c1cccc2cnccc12 | 135
2 | N=C(N)NCCC[C@H](NC(=O)[C@H](CCCNC(=N)N)NC(=O)[C@H](CCCNC(=N)N)NC(=O)[C@H](CCCNC(=N)N)NC(=O)[C@H](CCCNC(=N)N)NC(=O)[C@H](CCCNC(=N)N)NC(=O)CCCCCNC(=O)[C@H]1O[C@@H](n2cnc3c(N)ncnc32)[C@H](O)[C@@H]1O)C(=O)O | 700
3 | NCCCCCCNC(=O)[C@H](CCCN=C(N)N)NC(=O)[C@H](CCCN=C(N)N)NC(=O)[C@H](CCCN=C(N)N)NC(=O)[C@H](CCCN=C(N)N)NC(=O)CCCCCNC(=O)[C@H]1O[C@@H](n2cnc3c(N)ncnc32)[C@H](O)[C@@H]1O ({Adenosine(5'-uronoyl)-Ahx}-RRRR-{NH(CH2)6NH2}) | 680
4 | COCCOCCNC(=O)C(CCCCNC(=O)CCCC[C@@H]1SC[C@@H]2NC(=O)N[C@@H]21)NC(=O)[C@H](CCCN=C(N)N)NC(=O)[C@H](CCCN=C(N)N)NC(=O)[C@H](CCCN=C(N)N)NC(=O)[C@H](CCCN=C(N)N)NC(=O)CCCCCNC(=O)[C@H]1O[C@@H](n2cnc3c(N)ncnc32)[C@H](O)[C@@H]1O (stereo not given in full) ({Adenosine(5'-uronoyl)-Ahx}-RRRR[ξK](Biotin)-NHCH2CH2OCH2CH2OMe) | 1200
5 | COCCOCCNC(=O)C(CCCCN)NC(=O)[C@H](CCCN=C(N)N)NC(=O)[C@H](CCCN=C(N)N)NC(=O)[C@H](CCCN=C(N)N)NC(=O)[C@H](CCCN=C(N)N)NC(=O)CCCCCNC(=O)[C@H]1O[C@@H](n2cnc3c(N)ncnc32)[C@H](O)[C@@H]1O (stereo not given in full) ({Adenosine(5'-uronoyl)-Ahx}-RRRR[ξK]-NHCH2CH2OCH2CH2OMe) | 460
